“Also recorded” adds a separate entry of the source.
System: pseudomonas aerigenosa (ATCC 27853) biofilm
Experiment: Biofouling test on enhanced tube and smooth tube in laboratory scale cooling tower system (modified P-U-L-S-E fouling monitor)
Format: cell-based

SMILES	effect on inhibiting and/or removing biofilm	reduction of biofilm deposits (summary of test results)
BrBr [bromine, reference compound]	little effect	not effective alone
[O][Cl+][O-] [chlorine dioxide]	effective; also recorded: more effective than stabilized bromine	reduce the deposit of biofilm

Reference: patent US20070081573A1, “Process for inhibiting biofilm formation on and/or removing biofilm from an enhanced tube” (Ashland Licensing and Intellectual Property LLC, priority 2005, published 2007)
